Source: US11542235B2, “Herbicidal 3-azaspiro[5.5] undecane-8, 10-dione compounds” (SYNGENTA PARTICIPATIONS AG, priority 2018, dated 2023)

Key:
Format in all cases: in vivo
[1] = tested on: Lolium perenne (LOLPE); assay: Glasshouse herbicidal test, pre- and post-emergence, Lolium perenne; settings: 250 g/h, evaluated after 13 days, five point scale; for percentage damage caused to the plant, LOLPE POST: post-emergence; for percentage damage caused to the plant, LOLPE PRE: pre-emergence
Procedure: (§1) Seeds of a variety of test species are sown in standard soil in pots (Lolium perenne (LOLPE), Setaria faberi (SETFA), Alopecurus myosuroides (ALOMY), Echinochloa crus-galli (ECHCG), Avena fatua (AVEFA)). After cultivation for one day (pre-emergence) or after 8 days cultivation (post-emergence) under controlled conditions in a glasshouse (at 24/16° C., day/night; 14 hours light; 65% humidity), the plants are sprayed with an aqueous spray solution derived from the formulation of the technical active ingredient in acetone/water (50:50) solution containing 0.5% Tween 20 (polyoxyethelyene sorbitan monolaurate, CAS RN 9005-64-5). Compounds are applied at […]. The test plants are then grown in a glasshouse under controlled conditions in a glasshouse (at 24/16° C., day/night; 14 hours light; 65% humidity) and watered twice daily. After 13 days for pre and post-emergence, the test is evaluated for the percentage damage caused to the plant. The biological activities are shown in the following table on a five point scale (5=80-100%; 4=60-79%; 3=40-59%; 2=20-39%; 1=0-19%).

[2] = tested on: Setaria faberi (SETFA); assay: Glasshouse herbicidal test, pre- and post-emergence, Setaria faberi; settings: 250 g/h, evaluated after 13 days, five point scale; for percentage damage caused to the plant, SETFA POST: post-emergence; for percentage damage caused to the plant, SETFA PRE: pre-emergence
Procedure: as §1

[3] = tested on: Alopecurus myosuroides (ALOMY); assay: Glasshouse herbicidal test, pre- and post-emergence, Alopecurus myosuroides; settings: 250 g/h, evaluated after 13 days, five point scale; for percentage damage caused to the plant, ALOMY POST: post-emergence; for percentage damage caused to the plant, ALOMY PRE: pre-emergence
Procedure: as §1

[4] = tested on: Echinochloa crus-galli (ECHCG); assay: Glasshouse herbicidal test, pre- and post-emergence, Echinochloa crus-galli; settings: 250 g/h, evaluated after 13 days, five point scale; for percentage damage caused to the plant, ECHCG POST: post-emergence; for percentage damage caused to the plant, ECHCG PRE: pre-emergence
Procedure: as §1

[5] = tested on: Avena fatua (AVEFA); assay: Glasshouse herbicidal test, pre- and post-emergence, Avena fatua; settings: 250 g/h, evaluated after 13 days, five point scale; for percentage damage caused to the plant, AVEFA POST: post-emergence; for percentage damage caused to the plant, AVEFA PRE: pre-emergence
Procedure: as §1

CC#Cc1cc(C)c(C2=C(OC(=O)OC)CC3(CCN(C(=O)C(F)F)CC3)CC2=O)c(C)c1 [Compound P16]
5 (5=80-100%): percentage damage caused to the plant, LOLPE POST [1] | percentage damage caused to the plant, LOLPE PRE [1] | percentage damage caused to the plant, SETFA POST [2] | percentage damage caused to the plant, SETFA PRE [2] | percentage damage caused to the plant, ALOMY POST [3] | percentage damage caused to the plant, ALOMY PRE [3] | percentage damage caused to the plant, ECHCG POST [4] | percentage damage caused to the plant, ECHCG PRE [4] | percentage damage caused to the plant, AVEFA POST [5] | percentage damage caused to the plant, AVEFA PRE [5]

CC#Cc1cc(C)c(C2C(=O)CC3(CCN(C(=O)C(C)(Cl)Cl)CC3)CC2=O)c(C)c1 [Compound A27]
5 (5=80-100%): percentage damage caused to the plant, LOLPE POST [1] | percentage damage caused to the plant, LOLPE PRE [1] | percentage damage caused to the plant, SETFA POST [2] | percentage damage caused to the plant, SETFA PRE [2] | percentage damage caused to the plant, ALOMY POST [3] | percentage damage caused to the plant, ALOMY PRE [3] | percentage damage caused to the plant, ECHCG POST [4] | percentage damage caused to the plant, ECHCG PRE [4] | percentage damage caused to the plant, AVEFA POST [5] | percentage damage caused to the plant, AVEFA PRE [5]

CC#Cc1cc(C)c(C2=C(OC(=O)Oc3ccccc3)CC3(CCN(C(C)=O)CC3)CC2=O)c(C)c1 [Compound P9]
5 (5=80-100%): percentage damage caused to the plant, LOLPE POST [1] | percentage damage caused to the plant, LOLPE PRE [1] | percentage damage caused to the plant, SETFA POST [2] | percentage damage caused to the plant, SETFA PRE [2] | percentage damage caused to the plant, ALOMY POST [3] | percentage damage caused to the plant, ALOMY PRE [3] | percentage damage caused to the plant, ECHCG PRE [4] | percentage damage caused to the plant, AVEFA POST [5] | percentage damage caused to the plant, AVEFA PRE [5]

CC#Cc1cc(C)c(C2C(=O)CC3(CCN(C(=O)C(C)F)CC3)CC2=O)c(C)c1 (stereo not shown) [Compound A21]
5 (5=80-100%): percentage damage caused to the plant, LOLPE POST [1] | percentage damage caused to the plant, LOLPE PRE [1] | percentage damage caused to the plant, SETFA POST [2] | percentage damage caused to the plant, SETFA PRE [2] | percentage damage caused to the plant, ALOMY POST [3] | percentage damage caused to the plant, ALOMY PRE [3] | percentage damage caused to the plant, ECHCG POST [4] | percentage damage caused to the plant, ECHCG PRE [4] | percentage damage caused to the plant, AVEFA POST [5] | percentage damage caused to the plant, AVEFA PRE [5]

C#CCOC1=C(c2c(C)cc(C#CC)cc2C)C(=O)CC2(CCN(C(C)=O)CC2)C1 [Compound P17]
5 (5=80-100%): percentage damage caused to the plant, LOLPE POST [1] | percentage damage caused to the plant, LOLPE PRE [1] | percentage damage caused to the plant, SETFA POST [2] | percentage damage caused to the plant, SETFA PRE [2] | percentage damage caused to the plant, ALOMY POST [3] | percentage damage caused to the plant, ALOMY PRE [3] | percentage damage caused to the plant, ECHCG PRE [4] | percentage damage caused to the plant, AVEFA POST [5] | percentage damage caused to the plant, AVEFA PRE [5]

CC#Cc1cc(C)c(C2C(=O)CC3(CCN(C(=O)C(C)(C)F)CC3)CC2=O)c(C)c1 [Compound A23]
5 (5=80-100%): percentage damage caused to the plant, LOLPE POST [1] | percentage damage caused to the plant, LOLPE PRE [1] | percentage damage caused to the plant, SETFA POST [2] | percentage damage caused to the plant, SETFA PRE [2] | percentage damage caused to the plant, ALOMY POST [3] | percentage damage caused to the plant, ALOMY PRE [3] | percentage damage caused to the plant, ECHCG POST [4] | percentage damage caused to the plant, ECHCG PRE [4] | percentage damage caused to the plant, AVEFA POST [5] | percentage damage caused to the plant, AVEFA PRE [5]

CC#Cc1cc(C)c(C2=C(OC(=O)C(C)C)CC3(CCN(C(=O)C(C)C)CC3)CC2=O)c(C)c1 [Compound P7]
5 (5=80-100%): percentage damage caused to the plant, LOLPE POST [1] | percentage damage caused to the plant, LOLPE PRE [1] | percentage damage caused to the plant, SETFA POST [2] | percentage damage caused to the plant, SETFA PRE [2] | percentage damage caused to the plant, ALOMY POST [3] | percentage damage caused to the plant, ALOMY PRE [3] | percentage damage caused to the plant, ECHCG POST [4] | percentage damage caused to the plant, ECHCG PRE [4] | percentage damage caused to the plant, AVEFA POST [5] | percentage damage caused to the plant, AVEFA PRE [5]

CC#Cc1cc(C)c(C2=C(OC(=O)OC)CC3(CCN(OC)CC3)CC2=O)c(C)c1 [Compound P3]
5 (5=80-100%): percentage damage caused to the plant, LOLPE POST [1] | percentage damage caused to the plant, LOLPE PRE [1] | percentage damage caused to the plant, SETFA POST [2] | percentage damage caused to the plant, SETFA PRE [2] | percentage damage caused to the plant, ALOMY POST [3] | percentage damage caused to the plant, ALOMY PRE [3] | percentage damage caused to the plant, ECHCG POST [4] | percentage damage caused to the plant, ECHCG PRE [4] | percentage damage caused to the plant, AVEFA POST [5] | percentage damage caused to the plant, AVEFA PRE [5]

CC#Cc1cc(C)c(C2C(=O)CC3(CCN(C(=O)C(C)(C)C)CC3)CC2=O)c(C)c1 [Compound A12]
5 (5=80-100%): percentage damage caused to the plant, LOLPE POST [1] | percentage damage caused to the plant, LOLPE PRE [1] | percentage damage caused to the plant, SETFA POST [2] | percentage damage caused to the plant, SETFA PRE [2] | percentage damage caused to the plant, ALOMY POST [3] | percentage damage caused to the plant, ALOMY PRE [3] | percentage damage caused to the plant, ECHCG POST [4] | percentage damage caused to the plant, ECHCG PRE [4] | percentage damage caused to the plant, AVEFA POST [5] | percentage damage caused to the plant, AVEFA PRE [5]
